In PubChem BioAssay AID2640 (Southern Research Specialized Biocontainment Screening …, 2010):
Activity calls are given as the source filed them.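 The calls were made as follows: active = wild-type drop in polymyxin IC50 at top compound dose over twice that in the PhoP-lacking mutant; inactive = the rest.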

Legend:
[1] = system: S. Typhimurium polymyxin resistance, OD600 growth, 24 h; test: polymyxin susceptibility shift in S. Typhimurium, wild type vs phoP- strains, OD600 (AID 2640)
[2] = as above; conditions: S. Typhimurium polymyxin resistance, OD600 growth, 24 h; for IC50 shift difference / IC50 shift: measured here: polymyxin IC50 shift, at 150 µM; for IC50 shift difference: WT minus phoP-
[3] = phoP- polymyxin IC50 at 150 uM, stronger effect = lower value
[4] = WT strain, stronger effect = higher value
[5] = phoP- strain, stronger effect = lower value
[6] = WT polymyxin IC50 at 150 uM, stronger effect = lower value

| Structure (SMILES) | IC50 [1] [µM] | IC50 [1, 3] [µM] | IC50 shift difference ([2]; stronger effect = higher value) | IC50 shift [2, 4] | IC50 shift [2, 5] | IC50 [1, 6] [µM] | outcome [2] |
| --- | --- | --- | --- | --- | --- | --- | --- |
| COc1c(N2CCN(C(=S)NCc3ccccc3)C(C)C2)c(F)cc2c(=O)c(C(=O)O)cn(C3CC3)c12 (centres undefined) | 10 | 0.677 | 6.39 | 9.16 | 2.76 | – | – |
| Cc1ccc(Nc2cc(C)c3c(O)cccc3n2)cc1C | – | 0.088 | 2.63 | 2.54 | -0.09 | 2.25 | inactive |
| S=C(NCc1ccc(Cl)cc1)Nc1ccncc1 | 30 | 24 | 20.4 | 3.93 | -16.4 | 3.59 | – |
| O=C(Nc1ccc(Cl)cc1)N1CCCN(Cc2ccccc2F)C1 | 30 | 26.9 | 27.6 | 5.14 | -22.4 | 0.62 | – |
| O=C1C2=C(Nc3ccccc3SC2c2ccco2)c2ccccc21 (centres undefined) | 30 | – | 14.6 | 18.2 | 3.6 | 0.04 | – |
| CCn1cc(C(=O)O)c(=O)c2cc(F)c(N3CCN(C(=S)NC(=O)c4ccccc4Cl)CC3)cc21 | 20 | 0.706 | 10.3 | 9.6 | -0.66 | 0.138 | – |
